“Also recorded” adds a separate entry of the source. No end group written: not given here.
How the values were obtained:
[1] = Prophylactic high fat diet murine model, weight change (Example 1); type: in vivo, mice; settings: HFD plus hBD-2 1,2 mg per kg per day in diet vs HFD reference group; 10 week study period; p=0.0028
From the text: (§1) The overall experimental design is shown in FIG. 1, top panel “Prophylactic study”. Mice: Mice were housed in trios, 4 cages per group. Feed intake was registered daily just before lights were turned off at 6 pm. Individual mice were subjected to experimental procedures in altered order both group and cage wise. Mice were kept at room temperature under a 12-hour light/dark cycle at SPF standard conditions. Diets: For dosing, the average weight was estimated to be 25 grams per mouse. Mice eat approximately 3 grams of feed per mouse per day.
(§2) Treatment regime: Mice were fed either a high fat diet (HFD) or a low fat (LF) control diet. The HFD contained 4 subgroups; a) hBD-2, b) HD5, c) hBD-2/HD5 and d) standard HFD without supplementation of defensins. Defensin concentration was 1,2 mg hBD-2 per kg mouse per day. HD5 was given in equimolar concentration to hBD-2.

[2] = system: microbiota of the intestine; assay: Prophylactic high fat diet murine model, 16S microbial analyses (Example 1); type: in vivo, mice
From the text: as §1, §2
(§3) Microbial analyses were carried out to study the microbiota of the intestine. Longitudinal 16S characterization was conducted on 4 paired samples from 60 mice, 240 samples in total. Each mouse was sampled prior to diet change, 1 week post diet change, 4 weeks post diet change and at termination, thus ensuring a thorough characterization of the faecal microbiota as a result of defensin treatment.

[3] = system: microbiota of the intestine; assay: Therapeutic high fat diet model in diet-induced obese mice, 16S microbial analyses (Example 2); type: in vivo
From the text: The overall design of the study is shown in FIG. 1, lower panel, “Therapeutic study”. Mice and diets. The experiment elucidates the effect of hBD-2 and HD5 on the microbiota in diet-induced obese mice. A run-in period of 13 weeks where mice were fed a very HFD (60% energy from fat) preceded the intervention. Only mice meeting the criteria of a minimum of 12 gram weight gain (approximately 50% of initial bodyweight) during the run-in period were included in the final analyses. […] They were exposed to all experimental tests, but excluded from the analyses.
Treatment regimen. Before the intervention all mice were MR scanned. Cages of mice were allocated to experimental groups based on their fat mass. All subsequent measures were paired with data from the same mouse before the intervention. A LFD (low fat diet) reference group was running in parallel. As controls for the intervention 2 additional groups were included: a) very HFD and b) LFD. Experimental mice stayed on the very HFD during the intervention. The mice were on the experimental diet for 10 weeks. They were co-housed throughout the experiment, 4 mice per cage, 3 cages per group. All tests ran over 3 days, 1 cage per group per day.
as §3

[4] = system: SCID mice; assay: Therapeutic, murine, 14 weeks, CD4+CD25+ T cell transfer induced colitis model (Example 4); type: in vivo
From the text: Treatment regime: 70 female BALB/c mice housed in groups of five per cage were allocated to 7 different treatment groups. Colitis was induced in SCID mice by transplantation of CD4+CD25 Tcells from BALB/c mice. Lymphocytes isolated from spleen and lymph nodes from BALB/c mice were subjected to negative selection of CD4+Tcells. Afterwards, CD4+CD25+cells were positively isolated by binding to the beads from the CD4+Tcell suspensions and the CD4+CD25—were collected from the supernatant. The animals were treated with hBD-2, 0.1 mg/kg s.c. once daily 86consecutive days from day 7 (OD); 1 mg/kg s.c. OD or 3 mg/kg s.c. OD;with mouse anti TNFa 100 μg/mouse s.c. twice weekly (enbrel); with dexamethasone 0.3 mg/kg intraperitoneally OD (dex); with PBS s.c. as vehicle from day 7 and 86 consecutive days (vehicle) or sham treated (sham).
Treatment groups: • 1. 0.1 mg/kg hBD-2, once daily subcutaneously (n=11) • 2. 1 mg/kg hBD-2, once daily subcutaneously (n=11) • 3. 3 mg/kg hBD-2, once daily subcutaneously (n=11) • 4. PBS (hBD-2 vehicle), once daily subcutaneously (n=11) • 5. 0.3 mg/kg Dexamethasone, once daily intraperitoneally (n=11) • 6. 100 μg/mouse soluble human 75-kilodalton TNF receptor linked to Fc portion of IgG1 (Enbrel), twice a week subcutaneously (n=11) • 7. Sham treated group (n=6)
Clinical assessment was based on body weight loss, stool consistency and presence of blood per rectum. The animals were sacrificed on day 95 and colon removed for assessment of weight and myeloperoxidase activity.

[5] = system: BALB/c mice; assay: Murine model of acute graft versus host disease following stem cell transplantation, oral hBD-2 (Example 11); type: in vivo; settings: for Intestinal T cell infiltration / Myeloid cell infiltration / Infiltration with CD45+ leucocytes: lamina propria; for Infiltration with CD45+ leucocytes: FACS analysis
Protocol: Bone marrow was harvested: hind limbs harvested from 2 female WT C57BL/6 mice aseptically. Skeletal muscle was removed and epiphysis cut away. Lumen of bone flushed with PBS and cells pelleted and taken up. Harvest of T-cells: spleens from 2 female WT C57BL/6 mice were meshed through a […] cell strainer into a PBS filled dish. Cells were taken up in PBS and transferred into a 50 mL falcon tube and spun down. Cells were taken up in 1 mL PBS and 20 μL of CD4 microbead+20 μL CD8 microbeads per spleen added for incubation for 20 min at 4 degrees C. Cells were washed with PBS and applied to MACS separation in order to positively select CD4+ and CD8+ cells. Positively selected T-cells were counted and taken up. Transplantation: directly after the second irradiation, all WT BALB/c recipient mice were injected with 5×1.000.000 BM cells (50 μL) i.v. into the retroorbital venous plexus under isoflurane anesthesia. 15 BALB/c mice were treated with 1.2 mg of hBD2/kg BW/day in 100 μL PBS per day vial oral gavage from day 0-10.
15 BALB/c mice received vehicle 100 μL PBS per day via oral gavage from day 0-10.
The mice were weighed daily for the initial 7 days and survival was monitored for 100 days.

[6] = same three dosing regimens, sacrifice day 95

Substance: human beta defensin 2 (GIGDPVTCLKSGAICHPVFCPRRYKQIGTCGLPGTKCCKKP; ends and bridges not checked; cysteine pairing not given here; listed as Homo sapiens) [hBD-2]
- Weight gain [1]: gained significantly less weight than the HFD reference group
- Abundance of Barnesiella ([2]; colon, prophylactic treatment, p<0.03): statistically significant increase in abundance of Barnesiella
- Abundance of Lactobacillus ([2]; colon, prophylactic treatment, p=0.1): trend towards lower abundance of Lactobacillus
- Microbial presence and abundance (unifrac, genus analysis) ([2]; prophylactic oral defensin in HFD, 1,2 mg hBD-2 per kg per day, HD5 equimolar, mix 50%+50%): affected primarily the microbial presence
- Relative abundance of Bifidobacteriaceae ([3]; colon, hBD-2 p<0.04): dramatically and statistically significant increased the relative abundance of Bifidobacteriaceae
- Abundance of Alloprevotella ([3]; colon, therapeutic intervention, HD5 p<0.02): no influence on Alloprevotella abundance
- Relative abundance of Bifidobacteriaceae ([3]; small intestine, hBD-2 p<0.0001): dramatically and statistically significant increased the relative abundance of Bifidobacteriaceae
- Clinical score (body weight loss, stool consistency, blood per rectum) ([4]; hBD-2 1 mg/kg s.c. OD, Dexamethasone 0.3 mg/kg i.p. OD, Enbrel 100 μg/mouse s.c. twice weekly, from day 7): statistically significant and similar effect on clinical score; also recorded: on par with 100 μg/mouse anti TNF-α s.c. twice weekly (Enbrel) and 0.3 mg/kg dexamethasone
- Colon weight [4, 6]: statistically significant and similar effect on colon weight; also recorded: on par with 100 μg/mouse anti TNF-α s.c. twice weekly (Enbrel) and 0.3 mg/kg dexamethasone
- Myeloperoxidase activity in intestinal tissue [4, 6]: statistically significant and similar effect; also recorded: on par with 100 μg/mouse anti TNF-α s.c. twice weekly (Enbrel) and 0.3 mg/kg dexamethasone
- Mortality ([5]; 15 mice oral hBD-2 for 10 days vs 15 mice PBS, p<0.0001): highly statistically significant reduction of mortality
- Share of treated mice that had died by day 35 ([5]; 15 mice, 1.2 mg/kg BW/day oral gavage day 0-10): less than 30%
- Mice that had died by day 35 ([5]; 15 mice, 1.2 mg/kg BW/day oral gavage day 0-10, all 15 vehicle mice had died by day 35): 4
- Mice still alive by day 100 ([5]; 15 mice, 1.2 mg/kg BW/day oral gavage day 0-10, p<0.0001): 8
- IL-1β from myeloid cells ([5]; FACS analysis of the spleen): Reduced IL-1B production in myeloid cells; also recorded: reduction of IL-1β from myeloid cells
- Neutrophils ([5]; FACS analysis of the spleen): Reduced proportion of neutrophils; also recorded: reduced number of neutrophils
- Th1 cytokine production, IFN-γ ([5]; FACS analysis of the spleen, CD4, CD8 and CD69+CD4 T cells): reduced Th 1 cytokine production; also recorded: reduced Th1 cytokine production
- Th1 cytokine production, TNF-α ([5]; FACS analysis of the spleen, CD4 and CD8 T cells): reduced Th 1 cytokine production; also recorded: reduced Th1 cytokine production
- Weight loss ([5]; first 7 days following bone marrow transplantation): lost statistically significantly less weight
- Microarray analysis of colon samples ([5]; hBD-2 treated group versus PBS): decreased inflammation, leucocyte and myeloid cell migration and tissue remodelling
- Intestinal T cell infiltration [5]: Reduction of intestinal T cell and myeloid cell infiltration
- Myeloid cell infiltration [5]: Reduction of intestinal T cell and myeloid cell infiltration
- Infiltration with CD45+ leucocytes [5]: Reduced CD45+leucocyte cell migration
- Infiltration with CD45+ leucocytes ([5]; listed as hBD2): reduced the infiltration
- Intestinal T cell infiltration ([5]; listed as hBD2): reduced
- Myeloid cell infiltration ([5]; listed as hBD2): reduced
- IL-6 concentration ([5]; serum): reduction of TNF-α and IL-6 concentrations
- IL-10 concentration ([5]; serum): increased concentration of IL-10
- TNF-α concentration ([5]; serum): reduction of TNF-α and IL-6 concentrations
- Histology score of the colon ([5]; vs PBS): statistically significant reduction of histology score; also recorded: highly statistically lower
- Histology score of the liver ([5]; vs PBS): statistically significant reduction of histology score; also recorded: highly statistically lower
- Histology score of the small intestine ([5]; vs PBS): statistically significant reduction of histology score; also recorded: highly statistically lower
